We go through 20 molecules from patent US9394297B2, “Amides as pim inhibitors” (AMGEN INC., priority 2012, dated 2016).

One test concerns the target Pim-1 (Homo sapiens (Human), UniProt P11309). In words: Pim-Mn enzyme assay (HTRF, 384-well), Pim-1. Particulars: read-out: Pim-1-Mn IC50 IP. It counts as biochemical.
The target in another test is Pim-2 (Homo sapiens (Human), UniProt Q9P1W9). In words: Pim-Mn enzyme assay (HTRF, 384-well), Pim-2. Particulars: read-out: Pim-2-Mn IC50 IP. It counts as biochemical. (In general: TR-FRET usually uses a lanthanide donor and a delayed reading to cut background.)
Another test deals with KMS-12-BM cell lines. The experiment in a line: KMS12 #2 flow cytometry assay (phospho-BAD Ser112). Particulars: Homo sapiens, 110 min; KMS-12-BM cells, pBAD Ser112 by flow cytometry, 110 min with compound; read-out: KMS-12-Flow IC50 IP. It counts as cell-based. (Flow cytometry measures light scatter and fluorescence of single cells or particles in a stream.)
Where [1] appears, read: Pim-1 enzyme 5 pM, ATP 1.5 μM, BAD (S112) 0.5 μM, HTRF, 22-point curve.
Setting [2] is: Pim-2 enzyme 0.5 pM, ATP 1.5 μM, BAD (S112) 0.5 μM, HTRF, 22-point curve.

Read-outs that look alike come from different tables or passages of the source.

Pim-1, sequence (P11309 whole entry): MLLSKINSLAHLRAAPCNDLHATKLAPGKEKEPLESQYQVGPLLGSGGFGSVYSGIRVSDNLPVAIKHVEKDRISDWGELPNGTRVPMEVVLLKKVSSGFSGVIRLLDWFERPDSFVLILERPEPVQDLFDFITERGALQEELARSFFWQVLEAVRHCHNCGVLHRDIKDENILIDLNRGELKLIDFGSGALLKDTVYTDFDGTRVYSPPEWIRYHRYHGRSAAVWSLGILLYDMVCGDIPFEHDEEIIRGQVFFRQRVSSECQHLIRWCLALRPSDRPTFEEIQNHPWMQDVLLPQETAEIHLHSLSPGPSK
Pim-2, sequence (Q9P1W9 whole entry): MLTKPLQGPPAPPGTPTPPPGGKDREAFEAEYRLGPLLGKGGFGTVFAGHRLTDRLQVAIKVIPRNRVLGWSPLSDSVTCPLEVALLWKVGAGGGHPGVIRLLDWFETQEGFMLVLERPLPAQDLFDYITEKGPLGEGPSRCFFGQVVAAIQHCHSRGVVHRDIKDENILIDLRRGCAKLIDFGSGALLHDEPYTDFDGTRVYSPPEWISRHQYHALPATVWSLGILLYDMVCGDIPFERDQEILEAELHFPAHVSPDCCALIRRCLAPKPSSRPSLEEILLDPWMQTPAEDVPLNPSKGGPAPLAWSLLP

Regarding `Cc1nc2cccc(-c3cc4c([nH]3)C3(CCOCC3)NC4=O)c2nc1NC(C)(C)C` [Example 409, 2′-(3-(tert-butylamino)-2-methyl-5-quinoxalinyl)-2,3,5,6-tetrahydro-1′H-spiro[pyran-4,6′-pyrrolo[3,4-b]pyrrol]-4′(5′H)-one], the half-inhibitory concentration (IC50) is 31.7 nM at Pim-1 (setting [1]), 62.6 nM on Pim-2 (setting [2]) and 5760 nM in the test with KMS-12-BM cell lines.
On to `Cc1nc2cccc(-c3cc4c([nH]3)CCNC4=O)c2nc1-c1ccncc1Cl` [Example 411, 2-(3-(3-chloro-4-pyridinyl)-2-methyl-5-quinoxalinyl)-1,5,6,7-tetrahydro-4H-pyrrolo[3,2-c]pyridin-4-one], for which the IC50 at Pim-1 (setting [1]) is 66.5 nM; on Pim-2 (setting [2]), 239 nM; in the test with KMS-12-BM cell lines, more than 40000 nM.
For `CC(C)Nc1nc2c(-c3cc4c([nH]3)CCNC4=O)cccc2c(=O)n1-c1ccccn1` [Example 415, 2-((1-methylethyl)amino)-8-(4-oxo-4,5,6,7-tetrahydro-1H-pyrrolo[3,2-c]pyridin-2-yl)-3-(2-pyridinyl)-4(3H)-quinazolinone], the half-inhibitory concentration (IC50) at Pim-1 (setting [1]) was 10.9 nM; at Pim-2 (setting [2]) it was 29.4 nM; with KMS-12-BM cell lines, 5860 nM.
Turning to `Cc1nc2cccc(-c3cc4c(=O)[nH]nc(C)c4[nH]3)c2nc1NC(C)(C)C` [Example 416, 2-(3-(tert-butylamino)-2-methylquinoxalin-5-yl)-7-methyl-1H-pyrrolo[2,3-d]pyridazin-4(5H)-one], the half-maximal inhibitory concentration (IC50) at Pim-1 stood at 7.63 nM; on Pim-2, 15.8 nM; with KMS-12-BM cell lines, 2950 nM.
For the molecule `Cc1nc2ccc(F)c(-c3cc(C(N)=O)c(C)[nH]3)c2nc1NC1(C)CC1` [Example 417, 5-(6-fluoro-2-methyl-3-((1-methylcyclopropyl)amino)quinoxalin-5-yl)-2-methyl-1H-pyrrole-3-carboxamide], the figures for the IC50 at Pim-1 (setting [1]), at Pim-2 (setting [2]) and with KMS-12-BM cell lines were 2.91 nM, 3.56 nM and 279 nM, respectively.
For the molecule `Cc1nc2cccc(-c3cc(C(N)=O)c(C4CC4)[nH]3)c2nc1NC(C)(C)C` [Example 418, 5-(3-(tert-butylamino)-2-methylquinoxalin-5-yl)-2-cyclopropyl-1H-pyrrole-3-carboxamide], the IC50 came to 3.52 nM on Pim-1 (setting [1]), 7.79 nM on Pim-2 (setting [2]) and 3150 nM with KMS-12-BM cell lines.
Consider `Cc1nc2cccc(-c3c[nH]c(C(N)=O)c3)c2nc1NC(C)(C)C` [Example 420, 4-(3-(tert-butylamino)-2-methyl-5-quinoxalinyl)-1H-pyrrole-2-carboxamide], for which the concentration for half-maximal inhibition (IC50) stood at 26.5 nM on Pim-1 (setting [1]), 34.8 nM on Pim-2 (setting [2]) and 9120 nM in the test with KMS-12-BM cell lines.
The corresponding values for `Cc1nc2cccc(-c3cc4n(c3)C(=O)NC4)c2nc1NC(C)(C)C` [Example 421, 6-(3-(tert-butylamino)-2-methylquinoxalin-5-yl)-1H-pyrrolo[1,2-c]imidazol-3(2H)-one] are 86 nM, 189 nM and 21200 nM.
Consider `Cc1nc2cccc(-c3cc4n(c3)C(=O)NC4=O)c2nc1NC(C)(C)C` [Example 422, 6-(3-(tert-Butylamino)-2-methyl-5-quinoxalinyl)-1H-pyrrolo[1,2-c]imidazole-1,3(2H)-dione], for which the IC50 at Pim-1 (setting [1]) came out at 12.3 nM; at Pim-2 (setting [2]) it was 37.1 nM; in the test on KMS-12-BM cell lines it was 2610 nM.
Regarding `Cc1nc2cccc(-c3cc4c(=O)[nH]ncc4[nH]3)c2nc1NC(C)(C)C` [Example 423, 2-(3-(tert-butylamino)-2-methylquinoxalin-5-yl)-1H-pyrrolo[2,3-d]pyridazin-4(5H)-one], the figures for the IC50 on Pim-1 (setting [1]), at Pim-2 (setting [2]) and in the test with KMS-12-BM cell lines were 5.44 nM, 3.71 nM and 378 nM, respectively.
As for `Cc1nc2cccc(-c3cc4c([nH]3)CCNC4=O)c2nc1-c1ccccc1` [Example 424, 2-(2-Methyl-3-phenylquinoxalin-5-yl)-6,7-dihydro-1H-pyrrolo[3,2-c]pyridin-4(5H)-one], the half-inhibitory concentration (IC50) on Pim-1 (setting [1]) was 82.4 nM; on Pim-2 (setting [2]), 82.1 nM; with KMS-12-BM cell lines, more than 40000 nM.
Turning to `Cc1nc2cccc(-c3cc4c([nH]3)CCNC4=O)c2nc1Cl` [Example 425, 2-(3-Chloro-2-methylquinoxalin-5-yl)-6,7-dihydro-1H-pyrrolo[3,2-c]pyridin-4(5H)-one], the IC50 is 392 nM at Pim-1 (setting [1]), 521 nM on Pim-2 (setting [2]) and more than 40000 nM with KMS-12-BM cell lines.
On to `Cc1ccccc1-c1nc2c(-c3cc4c([nH]3)CCNC4=O)cccc2nc1C` [Example 426, 2-(2-Methyl-3-(o-tolyl)quinoxalin-5-yl)-6,7-dihydro-1H-pyrrolo[3,2-c]pyridin-4(5H)-one], for which the IC50 at Pim-1 (setting [1]) is 52.3 nM; at Pim-2 (setting [2]) it was 127 nM; in the test with KMS-12-BM cell lines, more than 40000 nM.
As for `Cc1nc2cccc(-c3cc4c([nH]3)CCNC4=O)c2nc1-c1ccccc1Cl` [Example 427, 2-(3-(2-Chlorophenyl)-2-methylquinoxalin-5-yl)-6,7-dihydro-1H-pyrrolo[3,2-c]pyridin-4(5H)-one], the concentration for half-maximal inhibition (IC50) on Pim-1 (setting [1]) was 23.3 nM; on Pim-2 (setting [2]), 82 nM; with KMS-12-BM cell lines it was more than 40000 nM.
On to `Cc1nc2cccc(-c3cc4c([nH]3)CCNC4=O)c2nc1-c1ccccc1F` [Example 428, 2-(3-(2-Fluorophenyl)-2-methylquinoxalin-5-yl)-6,7-dihydro-1H-pyrrolo[3,2-c]pyridin-4(5H)-one], for which the IC50 is 39.9 nM at Pim-1 (setting [1]), 47.4 nM at Pim-2 (setting [2]) and more than 40000 nM in the test on KMS-12-BM cell lines.
With `Cc1nc2cccc(-c3cc4c([nH]3)CCNC4=O)c2nc1-c1ccccn1` [Example 429, 2-(2-Methyl-3-(pyridin-2-yl)quinoxalin-5-yl)-6,7-dihydro-1H-pyrrolo[3,2-c]pyridin-4(5H)-one], the IC50 on Pim-1 (setting [1]) was found to be 212 nM; at Pim-2 (setting [2]), 167 nM; in the test on KMS-12-BM cell lines, 8730 nM.
In the case of `Cc1cccnc1-c1nc2c(-c3cc4c([nH]3)CCNC4=O)cccc2nc1C` [Example 430, 2-(2-Methyl-3-(3-methylpyridin-2-yl)quinoxalin-5-yl)-6,7-dihydro-1H-pyrrolo[3,2-c]pyridin-4(5H)-one], the IC50 worked out at 200 nM on Pim-1 (setting [1]), 257 nM on Pim-2 (setting [2]) and 24800 nM in the test on KMS-12-BM cell lines.
Take `Cc1nc2cccc(-c3cc4c([nH]3)CCNC4=O)c2nc1-c1ccoc1` [Example 431, 2-(3-(Furan-3-yl)-2-methylquinoxalin-5-yl)-6,7-dihydro-1H-pyrrolo[3,2-c]pyridin-4(5H)-one]: the IC50 at Pim-1 (setting [1]) was found to be 67.3 nM; at Pim-2 (setting [2]) it was 61.9 nM; with KMS-12-BM cell lines it was 5060 nM.
Turning to `Cc1nc2cccc(-c3cc4c([nH]3)CCNC4=O)c2nc1-c1nccn1C` [Example 432, 2-(2-Methyl-3-(1-methyl-1H-imidazol-2-yl)quinoxalin-5-yl)-6,7-dihydro-1H-pyrrolo[3,2-c]pyridin-4(5H)-one], the IC50 was 413 nM on Pim-1 (setting [1]), 244 nM on Pim-2 (setting [2]) and more than 40000 nM in the test with KMS-12-BM cell lines.
The corresponding values for `Cc1nc2cccc(-c3cc4c([nH]3)CCNC4=O)c2nc1-c1ccoc1C` [Example 433, 2-(2-Methyl-3-(2-methylfuran-3-yl)quinoxalin-5-yl)-6,7-dihydro-1H-pyrrolo[3,2-c]pyridin-4(5H)-one] are 30.9 nM, 40.9 nM and 8400 nM.

By IC50 is commonly meant the midpoint of a concentration-inhibition curve.
